Source: patent US7329401B2, “Cyclooxygenase-2 selective agents useful as imaging probes and related methods” (The Regents of the University of California, priority 2002, dated 2008)

Experiments:
cyclooxygenase-2 = target: T1, cyclooxygenase-2 (Mus musculus, UniProt Q05769); experiment: Cell-based assay for cyclooxygenase-2 inhibition (PGE2 ELISA, LPS-treated RAW264.7 macrophages); conditions: lipopolysaccharide-treated murine RAW264.7 macrophages
T1 sequence (Q05769 18-604): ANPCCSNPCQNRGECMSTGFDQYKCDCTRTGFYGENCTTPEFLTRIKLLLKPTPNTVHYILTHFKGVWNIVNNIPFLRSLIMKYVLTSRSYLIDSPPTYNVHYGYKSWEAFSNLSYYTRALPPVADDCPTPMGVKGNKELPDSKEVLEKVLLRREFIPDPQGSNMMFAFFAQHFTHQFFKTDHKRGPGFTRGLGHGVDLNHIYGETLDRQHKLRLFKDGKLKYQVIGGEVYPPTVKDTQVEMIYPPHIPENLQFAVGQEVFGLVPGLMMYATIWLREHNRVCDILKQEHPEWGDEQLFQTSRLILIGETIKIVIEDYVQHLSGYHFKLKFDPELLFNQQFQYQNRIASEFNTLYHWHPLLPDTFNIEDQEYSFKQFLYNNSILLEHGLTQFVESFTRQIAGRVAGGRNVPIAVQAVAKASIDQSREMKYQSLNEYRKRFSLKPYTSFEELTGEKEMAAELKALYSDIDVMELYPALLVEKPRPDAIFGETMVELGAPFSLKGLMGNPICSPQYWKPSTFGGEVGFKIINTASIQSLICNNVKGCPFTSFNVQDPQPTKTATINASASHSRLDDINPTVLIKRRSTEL
Protocol: RAW 264.7 cells are a murine macrophage cell line that can be induced to express cyclooxygenase-2 by exposure to bacterial endotoxin/lipopolysaccharide (LPS). For this assay, RAW964.7 cells were plated at 90% confluence in 12-well cell culture plates. After attachment, cells were switched to 1 mL of endotoxin-free Dulbecco's Modified Eagle's Medium with high glucose and 0.5% calf serum overnight. Thirty minutes prior to induction of cyclooxygenase-2 expression, varying concentrations of the test compound (ranging from 20 nM to 0.3 nM) were added. NS-398 (a known cyclooxygenase-2 inhibitor) was used at 10 μM, as a control. Inhibitors or vehicle were added to the cultures by removing the existing culture medium and adding fresh medium containing inhibitor or vehicle. Cells were treated with LPS (final concentration, 10 ng per mL) to induce cyclooxygenase-2 expression. After eight hours, the media were collected from the cultures and frozen on dry ice. Cells were harvested and lysed. Protein determinations were performed to normalize PGE2 values to total protein in each well. PGE2 ELISA assays were performed with a commercial kit (Amersham).
The assay was carried out using lipopolysaccharide-treated murine RAW264.7 macrophages as described previously.

Cc1onc(-c2ccccc2)c1-c1ccc(S(N)(=O)=O)c(F)c1 [compound 4, 2-Fluoro-4-(5-methyl-3-phenylisoxazol-4-yl)benzenesulfonamide]
melting point: 192 to 195 °C (dec.) | IC50 (cyclooxygenase-2): 1.25 to 2.5 nM
